Data on 17 molecules can be found in patent US11130752B2, “Aminopyrimidine compound” (Cardurion Pharmaceuticals, LLC, priority 2018, dated 2021).

Where a name gives a salt, the structure may show the parent alone.

One test has as its target T1, human CaMKIIδ (Homo sapiens, UniProt Q13557).
T1 construct: Full-length, glutathione-S-transferase(GST)-tagged, human CaMKIIδ was purchased from Carna Biosciences; purchased Carna Biosciences (CaMKIIδ); Wako Pure Chemical Industries (calmodulin) 02-111
Description: In vitro CaMKII inhibitory activity (binding assay, TR-FRET). The note with it: Table 1, GST-tagged human CaMKIIδ, activity ranks. As for the experimental part:
Evaluation of In Vitro CaMKII Inhibitory Activity (Binding Assay)
In vitro CaMKIIδ inhibitory activity was evaluated by a binding assay.
Full-length, glutathione-S-transferase(GST)-tagged, human CaMKIIδ was purchased from Carna Biosciences (product #02-111, Kobe, Japan). Full-length bovine calmodulin was purchased from Wako Pure Chemical Industries (Osaka, Japan). Terbium-labeled anti-GST antibody (Tb-anti-GST Ab) was purchased from Life Technologies (Carlsbad, Calif., USA). Boron-dipyrromethene (BODIPY)-labeled probe ligand was synthesized as described below.
Time-Resolved Fluorescence Resonance Energy Transfer (TR-FRET) Assay
All assays were conducted using 384-well, white, flat-bottomed plates (product #784075, Greiner Bio-One, Frickenhausen, Germany) in kinase assay buffer, which consists of 50 mM HEPES pH 7.6, 10 mM MgCl2, 1 mM EGTA, 0.01% Brig-35, 0.1 mM DTT). The fluorescent probe ligand was added at a final concentration of 300 nM to solutions containing 0.21 nM Tb-anti-GST Ab, 1 mM CaCl2, 10 μg/mL calmodulin, and 0.5 nM GST-tagged CaMKIIδ. After shaded incubation of the protein-probe mixture on ice for 30 min, the premix was dispensed in the assay plate including test inhibitors with 4 fold dilution series of eight concentrations. After 1 hr incubation at room temperature, TR-FRET signals were measured in duplicate using an EnVision microplate reader (Perkin Elmer, Waltham, Mass., USA). The solution in each well was excited with a laser (λ=340 nm) reflected by a dichroic mirror (D400/D505 (Perkin Elmer) through an excitation filter (UV (TRF) 340, (Perkin Elmer)), and fluorescence from Tb and BODIPY were detected through two emission filters (CFP 495 (Perkin Elmer) for Tb, Emission 520 (Perkin Elmer) for BODIPY).
The percentage of inhibition of test compounds was calculated according to equation (1) Inhibition(%)=100×(μH−T)/(μH−μL) (1)
Where T is the value of the wells containing test compounds and μH and μL are the mean values of the 0% and 100% inhibition control wells, respectively. The values of the 0 and 100% controls were the signals obtained in the absence and presence of 3 μM its parent compound, respectively. The half maximal inhibitory concentration (IC50) of test compounds was calculated by fitting the data with the logistic equation using XLfit (IDBS, Guildford, UK). The IC50 was classified according to the following activity ranks.
As for `COCCOCCOc1nn([C@H]2CC[C@H](N3C[C@@H](C)O[C@@H](C)C3)CC2)cc1Nc1ncc(-c2ccc(Cl)c(O[C@@H](C)Cn3cnnn3)c2)cn1` [Example 240, 5-(3-(((S)-1-(1H-tetrazol-1-yl)propan-2-yl)oxy)-4-chlorophenyl)-N-(1-((1r,4r)-4-((2S,6R)-2,6-dimethylmorpholino)cyclohexyl)-3-(2-(2-methoxyethoxy)ethoxy)-1H-pyrazol-4-yl)pyrimidin-2-amine hydrochloride], the IC50 was less than 0.01 µM.

In the case of `CCOCCCOc1nn([C@H]2CC[C@H](N3[C@@H]4CC[C@H]3COC4)CC2)cc1Nc1ncc(-c2ccc(Cl)c(O[C@@H](C)Cn3cnnn3)c2)cn1` [Example 242, 5-(3-(((S)-1-(1H-tetrazol-1-yl)propan-2-yl)oxy)-4-chlorophenyl)-N-(1-((1r,4r)-4-((1R,5S)-3-oxa-8-azabicyclo[3.2.1]octan-8-yl)cyclohexyl)-3-(3-ethoxypropoxy)-1H-pyrazol-4-yl)pyrimidin-2-amine], the IC50 was less than 0.01 µM.

Turning to `C[C@@H](Cn1cnnn1)Oc1cc(-c2cnc(Nc3cn([C@H]4CC[C@H](N5[C@@H]6CC[C@H]5COC6)CC4)nc3OCCO)nc2)ccc1Cl` [Example 243, 2-((4-((5-(3-(((S)-1-(1H-tetrazol-1-yl)propan-2-yl)oxy)-4-chlorophenyl)pyrimidin-2-yl)amino)-1-((1r,4r)-4-((1R,5S)-3-oxa-8-azabicyclo[3.2.1]octan-8-yl)cyclohexyl)-1H-pyrazol-3-yl)oxy)ethan-1-ol], the IC50 was less than 0.01 µM.

In the case of `C[C@@H](Cn1cnnn1)Oc1cc(-c2cnc(Nc3cn([C@H]4CC[C@H](N5[C@@H]6CC[C@H]5COC6)CC4)nc3OCCO)nc2)ccc1C#N` [Example 244, 2-(((S)-1-(1H-tetrazol-1-yl)propan-2-yl)oxy)-4-(2-((1-((1r,4r)-4-((1R,5S)-3-oxa-8-azabicyclo[3.2.1]octan-8-yl)cyclohexyl)-3-(2-hydroxyethoxy)-1H-pyrazol-4-yl)amino)pyrimidin-5-yl)benzonitrile], the 50% inhibitory concentration (IC50) was less than 0.01 µM.

In the case of `C[C@@H](Cn1cnnn1)Oc1cc(-c2cnc(Nc3cn([C@H]4CC[C@H](N5CCOCC5)CC4)nc3O)nc2)ccc1C#N` [Example 461, 2-(((S)-1-(1H-tetrazol-1-yl)propan-2-yl)oxy)-4-(2-((3-hydroxy-1-((1r,4r)-4-morpholinocyclohexyl)-1H-pyrazol-4-yl)amino)pyrimidin-5-yl)benzonitrile], the half-inhibitory concentration (IC50) is less than 0.01 µM.

For `C[C@@H](Cn1cnnn1)Oc1cc(-c2cnc(Nc3cn([C@H]4CC[C@H](N5CCOCC5)CC4)nc3O)nc2)ccc1Cl` [Example 462, 4-((5-(3-(((S)-1-(1H-tetrazol-1-yl)propan-2-yl)oxy)-4-chlorophenyl)pyrimidin-2-yl)amino)-1-((1r,4r)-4-morpholinocyclohexyl)-1H-pyrazol-3-ol], the IC50 is less than 0.01 µM.

The test is the same for the next values; noted with them: Table 4, GST-tagged human CaMKIIδ, activity ranks.
In turn, `C[C@@H]1CN([C@H]2CC[C@H](n3cc(Nc4ncc(-c5ccc(Cl)c(O[C@@H](C)Cn6cnnn6)c5)cn4)c(OCc4nncn4C)n3)CC2)C[C@H](C)O1` [Example 473, 5-(3-(((S)-1-(1H-tetrazol-1-yl)propan-2-yl)oxy)-4-chlorophenyl)-N-(1-((1r,4r)-4-((2S,6R)-2,6-dimethylmorpholino)cyclohexyl)-3-((4-methyl-4H-1,2,4-triazol-3-yl)methoxy)-1H-pyrazol-4-yl)pyrimidin-2-amine] yielded an IC50 of less than 0.01 µM.

As to `C[C@@H]1CN([C@H]2CC[C@H](n3cc(Nc4ncc(-c5ccc(Cl)c(O[C@@H](C)Cn6cnnn6)c5)cn4)c(OCCCOCCO)n3)CC2)C[C@H](C)O1` [Example 474, 2-(3-((4-((5-(3-(((S)-1-(1H-tetrazol-1-yl)propan-2-yl)oxy)-4-chlorophenyl)pyrimidin-2-yl)amino)-1-((1r,4r)-4-((2S,6R)-2,6-dimethylmorpholino)cyclohexyl)-1H-pyrazol-3-yl)oxy)propoxy)ethan-1-ol], the IC50 was less than 0.01 µM.

`C[C@@H]1CN([C@H]2CC[C@H](n3cc(Nc4ncc(-c5ccc(Cl)c(O[C@@H](C)Cn6cnnn6)c5)cn4)c(OCCCO)n3)CC2)C[C@H](C)O1` [Example 475, 3-((4-((5-(3-(((S)-1-(1H-tetrazol-1-yl)propan-2-yl)oxy)-4-chlorophenyl)pyrimidin-2-yl)amino)-1-((1r,4r)-4-((2S,6R)-2,6-dimethylmorpholino)cyclohexyl)-1H-pyrazol-3-yl)oxy)propan-1-ol] came in with a half-maximal inhibitory concentration (IC50) of less than 0.01 µM.

Turning to `Cc1ncc(COc2nn([C@H]3CC[C@H](N4C[C@@H](C)O[C@@H](C)C4)CC3)cc2Nc2ncc(-c3ccc(C#N)c(O[C@@H](C)Cn4cnnn4)c3)cn2)s1` [Example 476, 2-(((S)-1-(1H-tetrazol-1-yl)propan-2-yl)oxy)-4-(2-((1-((1r,4r)-4-((2S,6R)-2,6-dimethylmorpholino)cyclohexyl)-3-((2-methylthiazol-5-yl)methoxy)-1H-pyrazol-4-yl)amino)pyrimidin-5-yl)benzonitrile], the IC50 is less than 0.01 µM.

In turn, `COC(C)(C)CCOc1nn([C@H]2CC[C@H](N3C[C@@H](C)O[C@@H](C)C3)CC2)cc1Nc1ncc(-c2ccc(C#N)c(O[C@@H](C)Cn3cnnn3)c2)cn1` [Example 478, 2-(((S)-1-(1H-tetrazol-1-yl)propan-2-yl)oxy)-4-(2-((1-((1r,4r)-4-((2S,6R)-2,6-dimethylmorpholino)cyclohexyl)-3-(3-methoxy-3-methylbutoxy)-1H-pyrazol-4-yl)amino)pyrimidin-5-yl)benzonitrile] showed a concentration for half-maximal inhibition (IC50) of less than 0.01 µM.

Molecule `C[C@@H]1CN([C@H]2CC[C@H](n3cc(Nc4ncc(-c5ccc(C#N)c(O[C@@H](C)Cn6cnnn6)c5)cn4)c(OCC4COC4)n3)CC2)C[C@H](C)O1` [Example 479, 2-(((S)-1-(1H-tetrazol-1-yl)propan-2-yl)oxy)-4-(2-((1-((1r,4r)-4-((2S,6R)-2,6-dimethylmorpholino)cyclohexyl)-3-(oxetan-3-ylmethoxy)-1H-pyrazol-4-yl)amino)pyrimidin-5-yl)benzonitrile] showed an IC50 of less than 0.01 µM.

In turn, `C[C@@H]1CN([C@H]2CC[C@H](n3cc(Nc4ncc(-c5ccc(Cl)c(O[C@@H](C)Cn6cnnn6)c5)cn4)c(OCC4COC4)n3)CC2)C[C@H](C)O1` [Example 480, 5-(3-(((S)-1-(1H-tetrazol-1-yl)propan-2-yl)oxy)-4-chlorophenyl)-N-(1-((1r,4r)-4-((2S,6R)-2,6-dimethylmorpholino)cyclohexyl)-3-(oxetan-3-ylmethoxy)-1H-pyrazol-4-yl)pyrimidin-2-amine] yielded a half-maximal inhibitory concentration (IC50) of less than 0.01 µM.

`C[C@@H]1CN([C@H]2CC[C@H](n3cc(Nc4ncc(-c5ccc(Cl)c(O[C@@H](C)Cn6cnnn6)c5)cn4)c(OCCO)n3)CC2)C[C@H](C)O1` [Example 481, 2-((4-((5-(3-(((S)-1-(1H-tetrazol-1-yl)propan-2-yl)oxy)-4-chlorophenyl)pyrimidin-2-yl)amino)-1-((1r,4r)-4-((2S,6R)-2,6-dimethylmorpholino)cyclohexyl)-1H-pyrazol-3-yl)oxy)ethan-1-ol] came in with a half-maximal inhibitory concentration (IC50) of less than 0.01 µM.

`C[C@@H]1CN([C@H]2CC[C@H](n3cc(Nc4ncc(-c5ccc(Cl)c(O[C@@H](C)Cn6cnnn6)c5)cn4)c(OC[C@@H](C)O)n3)CC2)C[C@H](C)O1` [Example 482, (R)-1-((4-((5-(3-(((S)-1-(1H-tetrazol-1-yl)propan-2-yl)oxy)-4-chlorophenyl)pyrimidin-2-yl)amino)-1-((1r,4r)-4-((2S,6R)-2,6-dimethylmorpholino)cyclohexyl)-1H-pyrazol-3-yl)oxy)propan-2-ol] gave an IC50 of less than 0.01 µM.

Consider `C[C@@H]1CN([C@H]2CC[C@H](n3cc(Nc4ncc(-c5ccc(C#N)c(O[C@@H](C)Cn6cnnn6)c5)cn4)c(OCC4CCOCC4)n3)CC2)C[C@H](C)O1` [Example 483, 2-(((S)-1-(1H-tetrazol-1-yl)propan-2-yl)oxy)-4-(2-((1-((1r,4r)-4-((2S,6R)-2,6-dimethylmorpholino)cyclohexyl)-3-((tetrahydro-2H-pyran-4-yl)methoxy)-1H-pyrazol-4-yl)amino)pyrimidin-5-yl)benzonitrile], for which the 50% inhibitory concentration (IC50) is less than 0.01 µM.

The molecule `COCCOCCCOc1nn([C@H]2CC[C@H](N3CCOCC3)CC2)cc1Nc1ncc(-c2ccc(C#N)c(O[C@@H](C)Cn3cnnn3)c2)cn1` [Example 490, 2-(((S)-1-(1H-tetrazol-1-yl)propan-2-yl)oxy)-4-(2-((3-(3-(2-methoxyethoxy)propoxy)-1-((1r,4r)-4-morpholinocyclohexyl)-1H-pyrazol-4-yl)amino)pyrimidin-5-yl)benzonitrile] displayed an IC50 of less than 0.01 µM.
